Experimental data as given in PubChem BioAssay AID212 (DTP/NCI, 2004).
Values joined by “and” are separate entries in the source; they are usually repeats but may differ in a detail not shown here. Equal values may be shown once. Records with an inconclusive call do not appear.

System: BDF1 mice, colon carcinoma 38 sc, T/C %
Experiment: NCI In Vivo Anticancer Drug Screen. Data for tumor model Colon Carcinoma 38 (subcutaneous) in B6D2F1 (BDF1) mice
Conditions: endpoint: median tumor weight (est.), higher = larger tumour
Outline: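 Ratio of survival or tumor size, compound-treated animals relative to vehicle controls, in tumor-bearing mice.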

[1] = dose: 25.0 mg/kg/injection, schedule: Q07DX002 (ip), vehicle: saline
[2] = dose: 50.0 mg/kg/injection, schedule: Q07DX002 (ip), vehicle: saline
[3] = dose: 25.0 mg/kg/injection, schedule: Q07DX003 (ip), vehicle: saline
[4] = dose: 50.0 mg/kg/injection, schedule: Q07DX003 (ip), vehicle: saline
[5] = dose: 100.0 mg/kg/injection, schedule: Q07DX003 (ip), vehicle: saline
[6] = dose: 12.5 mg/kg/injection, schedule: Q07DX002 (ip), vehicle: saline with Tween-80
[7] = dose: 50.0 mg/kg/injection, schedule: Q07DX002 (ip), vehicle: saline with Tween-80
[8] = dose: 12.5 mg/kg/injection, schedule: Q07DX003 (ip), vehicle: saline with Tween-80
[9] = dose: 25.0 mg/kg/injection, schedule: Q07DX003 (ip), vehicle: saline with Tween-80
[10] = dose: 50.0 mg/kg/injection, schedule: Q07DX003 (ip), vehicle: saline with Tween-80
[11] = dose: 100.0 mg/kg/injection, schedule: Q07DX003 (ip), vehicle: saline with Tween-80
[12] = dose: 200.0 mg/kg/injection, schedule: Q07DX003 (ip), vehicle: saline with Tween-80
[13] = dose: 1.25 mg/kg/injection, schedule: Q07DX002 (ip), vehicle: saline
[14] = dose: 2.5 mg/kg/injection, schedule: Q07DX002 (ip), vehicle: saline
[15] = dose: 5.0 mg/kg/injection, schedule: Q07DX002 (ip), vehicle: saline
[16] = dose: 10.0 mg/kg/injection, schedule: Q07DX002 (ip), vehicle: saline
[17] = dose: 25.0 mg/kg/injection, schedule: Q07DX002 (ip), vehicle: saline with Tween-80

Cn1/c2cc/c1=C(\c1ccc(S(=O)(=O)O)cc1)c1ccc([n-]1)/C(c1ccc(S(=O)(=O)O)cc1)=c1/cc/c([nH]1)=C(\c1ccc(S(=O)(=O)O)cc1)c1ccc([n-]1)/C=2c1ccc(S(=O)(=O)O)cc1.O.O=S(=O)(O)C(F)(F)F.[Cu+2]
T/C (dose: 12.5 mg/kg/injection, schedule: Q07DX002 (ip), vehicle: saline): 79 % of control | T/C [1]: 70 % of control | T/C [2]: 77 % of control | T/C (dose: 100.0 mg/kg/injection, schedule: Q07DX002 (ip), vehicle: saline): 89 % of control | T/C (dose: 200.0 mg/kg/injection, schedule: Q07DX002 (ip), vehicle: saline): 80 % of control

CC[C@](O)(C(=O)O)c1cc2n(c(=O)c1CO)Cc1cc3ccccc3nc1-2
T/C (dose: 6.25 mg/kg/injection, schedule: Q07DX003 (ip), vehicle: saline): 48 % of control and 62 % of control | T/C (dose: 12.5 mg/kg/injection, schedule: Q07DX003 (ip), vehicle: saline): 38 % of control and 60 % of control | T/C [3]: 34 % of control and 41 % of control and 54 % of control | T/C [4]: 23 % of control and 26 % of control and 45 % of control | T/C [5]: 9 % of control

CN(C)CCN1C(=O)c2cccc3cc(N)cc(c23)C1=O
T/C (dose: 2.0 mg/kg/injection, schedule: Q07DX002 (ip), vehicle: saline with Tween-80): 111 % of control | T/C (dose: 4.0 mg/kg/injection, schedule: Q07DX002 (ip), vehicle: saline with Tween-80): 97 % of control | T/C (dose: 8.0 mg/kg/injection, schedule: Q07DX002 (ip), vehicle: saline with Tween-80): 87 % of control and 88 % of control | T/C (dose: 16.0 mg/kg/injection, schedule: Q07DX002 (ip), vehicle: saline with Tween-80): 100 % of control | T/C (dose: 64.0 mg/kg/injection, schedule: Q07DX002 (ip), vehicle: saline with Tween-80): 55 % of control and 58 % of control

CCOC(=O)C(C)(C)Oc1ccc(Cl)cc1
T/C [6]: 60 % of control | T/C [7]: 94 % of control and 100 % of control | T/C (dose: 200.0 mg/kg/injection, schedule: Q07DX002 (ip), vehicle: saline with Tween-80): 110 % of control | T/C (dose: 400.0 mg/kg/injection, schedule: Q07DX002 (ip), vehicle: saline with Tween-80): 86 % of control

c1ccc2c(NCCCCCCNc3c4ccccc4nc4ccccc34)c3ccccc3nc2c1
T/C (dose: 1.25 mg/kg/injection, schedule: Q07DX002 (ip), vehicle: Klucel (hydroxypropylcellulose) (HPC)): 109 % of control and 95 % of control | T/C (dose: 2.5 mg/kg/injection, schedule: Q07DX002 (ip), vehicle: Klucel (hydroxypropylcellulose) (HPC)): 122 % of control and 97 % of control | T/C (dose: 5.0 mg/kg/injection, schedule: Q07DX002 (ip), vehicle: Klucel (hydroxypropylcellulose) (HPC)): 70 % of control | T/C (dose: 20.0 mg/kg/injection, schedule: Q07DX002 (ip), vehicle: Klucel (hydroxypropylcellulose) (HPC)): 70 % of control and 76 % of control | T/C (dose: 40.0 mg/kg/injection, schedule: Q07DX002 (ip), vehicle: Klucel (hydroxypropylcellulose) (HPC)): 72 % of control

CO[C@H]1C[C@@H]2CC[C@@H](C)[C@@](O)(O2)C(=O)C(=O)N2CCCC[C@H]2C(=O)O[C@H]([C@H](C)C[C@@H]2CC[C@@H](O)[C@H](OC)C2)CC(=O)[C@H](C)C=C(C)[C@@H](O)[C@@H](OC)C(=O)[C@H](C)C[C@H](C)/C=C/C=C/C=C1C
T/C [8]: 40 % of control and 45 % of control | T/C [9]: 26 % of control and 45 % of control | T/C [10]: 20 % of control and 39 % of control | T/C [11]: 33 % of control | T/C [12]: 14 % of control and 25 % of control | T/C (dose: 400.0 mg/kg/injection, schedule: Q07DX003 (ip), vehicle: saline with Tween-80): 14 % of control and 23 % of control

CC1=C2CC(C)(C)/C=C\C(=O)/C(C)=C\C3=C[C@H](C)C[C@]3(O2)C1=O
T/C (dose: 1.5 mg/kg/injection, schedule: Q07DX002 (ip), vehicle: Klucel (hydroxypropylcellulose) (HPC)): 80 % of control | T/C (dose: 3.0 mg/kg/injection, schedule: Q07DX002 (ip), vehicle: Klucel (hydroxypropylcellulose) (HPC)): 100 % of control | T/C (dose: 6.0 mg/kg/injection, schedule: Q07DX002 (ip), vehicle: Klucel (hydroxypropylcellulose) (HPC)): 157 % of control

O=[Te]=O
T/C [1]: 98 % of control | T/C [2]: 93 % of control

N=[N+]=CC(=O)CCC(NC(=O)C(CCC(=O)C=[N+]=N)NC(=O)CCC(N)C(=O)O)C(=O)O (stereo unspecified)
T/C (dose: 3.12 mg/kg/injection, schedule: Q07DX003 (ip), vehicle: clinical formulation): 54 % of control | T/C (dose: 3.12 mg/kg/injection, schedule: Q07DX003 (ip), vehicle: water): 52 % of control | T/C (dose: 6.25 mg/kg/injection, schedule: Q07DX003 (ip), vehicle: clinical formulation): 62 % of control | T/C (dose: 6.25 mg/kg/injection, schedule: Q07DX003 (ip), vehicle: water): 48 % of control | T/C (dose: 12.5 mg/kg/injection, schedule: Q07DX003 (ip), vehicle: clinical formulation): 46 % of control | T/C (dose: 12.5 mg/kg/injection, schedule: Q07DX003 (ip), vehicle: water): 32 % of control | T/C (dose: 25.0 mg/kg/injection, schedule: Q07DX003 (ip), vehicle: clinical formulation): 40 % of control | T/C (dose: 25.0 mg/kg/injection, schedule: Q07DX003 (ip), vehicle: water): 44 % of control | T/C (dose: 50.0 mg/kg/injection, schedule: Q07DX003 (ip), vehicle: clinical formulation): 18 % of control | T/C (dose: 50.0 mg/kg/injection, schedule: Q07DX003 (ip), vehicle: water): 12 % of control

OCC1OC(n2cnc3c2NC=NC[C@H]3O)CC1O (stereo partly specified)
T/C (dose: 0.63 mg/kg/injection, schedule: Q07DX002 (ip), vehicle: saline): 70 % of control | T/C [13]: 83 % of control | T/C (dose: 2.0 mg/kg/injection, schedule: Q07DX002 (ip), vehicle: saline): 68 % of control | T/C [14]: 43 % of control | T/C [15]: 90 % of control | T/C (dose: 8.0 mg/kg/injection, schedule: Q07DX002 (ip), vehicle: saline): 67 % of control | T/C [16]: 45 % of control | T/C (dose: 16.0 mg/kg/injection, schedule: Q07DX002 (ip), vehicle: saline): 74 % of control

NC1=NCN(C2OC(CO)C(O)C2O)C(=O)N1 (stereo unspecified)
T/C [3]: 57 % of control and 71 % of control | T/C [4]: 60 % of control and 79 % of control | T/C [5]: 54 % of control and 75 % of control | T/C (dose: 400.0 mg/kg/injection, schedule: Q07DX003 (ip), vehicle: saline): 57 % of control and 58 % of control | T/C (dose: 600.0 mg/kg/injection, schedule: Q07DX003 (ip), vehicle: saline): 94 % of control | T/C (dose: 1000.0 mg/kg/injection, schedule: Q07DX003 (ip), vehicle: saline): 79 % of control | T/C (dose: 1200.0 mg/kg/injection, schedule: Q07DX003 (ip), vehicle: saline): 63 % of control | T/C (dose: 1400.0 mg/kg/injection, schedule: Q07DX003 (ip), vehicle: saline): 84 % of control | T/C (dose: 1600.0 mg/kg/injection, schedule: Q07DX003 (ip), vehicle: saline): 47 % of control

NC1CCCCC1N.O=C1C=CC(=C(c2ccc(O)cc2)c2ccccc2S(=O)(=O)[O-])C=C1.O=[N+]([O-])[O-].[Pt+4]
T/C (dose: 1.56 mg/kg/injection, schedule: Q07DX002 (ip), vehicle: saline): 14 % of control

CC(=O)Nc1ccc(Nc2ccc(C(=C3C=CC(=[N+](C)CCC#N)C=C3)c3ccc(N(C)CCC#N)cc3)cc2)cc1
T/C [17]: 77 % of control and 93 % of control | T/C [7]: 91 % of control | T/C (dose: 100.0 mg/kg/injection, schedule: Q07DX002 (ip), vehicle: saline with Tween-80): 52 % of control

Brc1ccc(C[N+]23CN4CN(CN(C4)C2)C3)cc1
T/C [8]: 121 % of control | T/C [9]: 79 % of control | T/C [10]: 108 % of control | T/C [11]: 95 % of control | T/C [12]: 62 % of control

Cc1nc(N)nc(N)c1-c1ccc(Cl)c(Cl)c1
T/C [13]: 106 % of control | T/C [14]: 81 % of control and 102 % of control | T/C [15]: 50 % of control and 72 % of control | T/C [16]: 68 % of control and 69 % of control and 83 % of control | T/C (dose: 10.0 mg/kg/injection, schedule: Q07DX002 (ip), vehicle: suspension in saline): 67 % of control | T/C (dose: 20.0 mg/kg/injection, schedule: Q07DX002 (ip), vehicle: suspension in saline): 46 % of control | T/C (dose: 80.0 mg/kg/injection, schedule: Q07DX002 (ip), vehicle: saline): 55 % of control

CNC(=O)O/N=C(\CN=[N+]=[N-])C(C)(C)C
T/C (dose: 1.0 mg/kg/injection, schedule: Q07DX002 (ip), vehicle: saline): 103 % of control

Clc1cc(Cl)c(C[N+]23CN4CN(CN(C4)C2)C3)cc1Cl
T/C [6]: 80 % of control and 90 % of control | T/C [17]: 118 % of control
